Test results reported in patent US20240279278A1, “NMU RECEPTOR 2 AGONISTS” (Boehringer Ingelheim International GmbH, priority 2023, published 2024).
≈ marks a conversion by molar mass, not a printed value. Residues, ends and D or L forms follow the SMILES beside them.

How the values were obtained:
human NMUR1 receptor = target: T1, human NMUR1 receptor (Homo sapiens, UniProt Q9HB89); assay: IP1 Gq HTRF assay, activation of human NMUR1 in buffer; format: cell-based; details: CHO-K1 cells expressing human NMUR1, stimulation buffer with 0.1% BSA; read-out: EC50 (hNMUR1) buffer
T1 construct: expressed in transfected cells; host or cells: CHO-K1
T1 sequence (Q9HB89 1-426): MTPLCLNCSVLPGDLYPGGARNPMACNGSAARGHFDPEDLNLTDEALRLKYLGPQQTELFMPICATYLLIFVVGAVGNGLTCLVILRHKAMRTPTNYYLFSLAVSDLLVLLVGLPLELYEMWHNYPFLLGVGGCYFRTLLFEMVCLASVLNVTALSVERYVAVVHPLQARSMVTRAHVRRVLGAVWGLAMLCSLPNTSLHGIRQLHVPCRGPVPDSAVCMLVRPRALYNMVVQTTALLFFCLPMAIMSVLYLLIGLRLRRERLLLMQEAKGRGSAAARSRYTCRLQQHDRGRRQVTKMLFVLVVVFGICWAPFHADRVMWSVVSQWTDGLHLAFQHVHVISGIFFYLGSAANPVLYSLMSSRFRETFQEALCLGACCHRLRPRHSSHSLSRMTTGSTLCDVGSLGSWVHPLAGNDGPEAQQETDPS
Method in brief: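 CHO-K1 cells stably expressing human NMUR1 or NMUR2, seeded 24 h before assay, stimulated with peptide agonists (8-point dose-response, 1% DMSO final) in HEPES/HBSS buffer with 50 mM LiCl and 0.1% BSA, pH 7.4, 1 h at 37 °C. IP1 accumulation read by HTRF competition (665/620 nm); EC50 from 4-parameter sigmoidal fit.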

physchem = format: physicochemical
Method in brief: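 Peptide TFA salts were shaken at a nominal 10 mg/mL in 0.1 M phosphate buffer, pH 6 to 8, for 2 h at room temperature and then filtered. Reversed-phase HPLC peak area was compared with a 1 mg/mL control in buffer or DMSO to give solubility. The pH of each sample was recorded.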

Row | Structure (SMILES) | EC50 (human NMUR1 receptor) [µM] | solubility at 2 h (physchem; pH 7.2) [µg/mL] | also measured
1 | CCCC[C@H](NC(=O)[C@H](CC(C)C)N(C)C(=O)[C@H](Cc1ccccc1)NC(=O)[C@H](Cc1ccc(O)cc1)NC(=O)CN1CCN(CCNC(=O)CN(C)C(=O)CN(C)C(=O)CN(C)C(=O)CN(C)C(=O)CN(C)C(=O)CN(C)C(=O)CN(C)C(=O)CN(C)C(=O)CN(C)C(=O)CN(C)C(=O)CN(C)C(=O)CN(C)C(=O)CN(C)C(=O)CN(C)C(=O)CN(C)C(=O)CC[C@H](NC(=O)CC[C@H](NC(=O)CC[C@H](NC(=O)CCCCCCCCCCCCCCCCCCC(=O)O)C(=O)O)C(=O)O)C(=O)O)CC1)C(=O)N[C@@H](CCCN)C(=O)N1CCC[C@H]1C(=O)N[C@@H](CCCNC(=N)N)C(=O)NCC(N)=O [Compound 1, C20DA-gGlu3-Sar15-AEPipAc-Tyr-Phe-NMeLeu-Nle-Orn-Pro-Arg-Gly-NH2] (HELM PEPTIDE1{[O=C(O)CCCCCCCCCCCCCCCCCCC(=O)[*:2]].[gGlu].[gGlu].[gGlu].[Sar].[Sar].[Sar].[Sar].[Sar].[Sar].[Sar].[Sar].[Sar].[Sar].[Sar].[Sar].[Sar].[Sar].[Sar].[O=C(CN1CCN(CCN[*:1])CC1)[*:2]].Y.F.[meL].[Nle].[Orn].P.R.G.[am]}$$$$V2.0) | 0.89 | – | solubility at 2 h (physchem; pH 7.5): 8200 µg/mL (≈ 2.79 mM)
2 | CCCC[C@H](NC(=O)[C@H](CC(C)C)N(C)C(=O)[C@H](Cc1ccccc1)NC(=O)[C@H](Cc1ccc(O)cc1)NC(=O)CN1CCN(CCNC(=O)CN(C)C(=O)CN(C)C(=O)CN(C)C(=O)CN(C)C(=O)CN(C)C(=O)CN(C)C(=O)CN(C)C(=O)CN(C)C(=O)CN(C)C(=O)CN(C)C(=O)CN(C)C(=O)CN(C)C(=O)CN(C)C(=O)CN(C)C(=O)CN(C)C(=O)CC[C@H](NC(=O)CC[C@H](NC(=O)CC[C@H](NC(=O)CCCCCCCCCCCCCCCCC(=O)O)C(=O)O)C(=O)O)C(=O)O)CC1)C(=O)N[C@@H](CCCNC(=N)N)C(=O)N1CCC[C@H]1C(=O)N[C@@H](CCCNC(=N)N)C(=O)NCC(N)=O [Compound 7, C18DA-gGlu3-Sar15-AEPipAc-Tyr-Phe-NMeLeu-Nle-Arg-Pro-Arg-Gly-NH2] (HELM PEPTIDE1{[O=C(O)CCCCCCCCCCCCCCCCC(=O)[*:2]].[gGlu].[gGlu].[gGlu].[Sar].[Sar].[Sar].[Sar].[Sar].[Sar].[Sar].[Sar].[Sar].[Sar].[Sar].[Sar].[Sar].[Sar].[Sar].[O=C(CN1CCN(CCN[*:1])CC1)[*:2]].Y.F.[meL].[Nle].R.P.R.G.[am]}$$$$V2.0) | 0.25 | – | solubility at 2 h (physchem; pH 7): 7000 µg/mL (≈ 2.37 mM)
3 | CCCC[C@H](NC(=O)[C@H](CC(C)C)N(C)C(=O)[C@H](Cc1ccccc1)NC(=O)[C@H](Cc1ccc(O)cc1)NC(=O)CN1CCN(CCNC(=O)CN(C)C(=O)CN(C)C(=O)CN(C)C(=O)CN(C)C(=O)CN(C)C(=O)CN(C)C(=O)CN(C)C(=O)CN(C)C(=O)CN(C)C(=O)CN(C)C(=O)CN(C)C(=O)CN(C)C(=O)CC[C@H](NC(=O)CC[C@H](NC(=O)CC[C@H](NC(=O)CCCCCCCCCCCCCCCCC(=O)O)C(=O)O)C(=O)O)C(=O)O)CC1)C(=O)N[C@@H](CCN)C(=O)N1CCC[C@H]1C(=O)N[C@@H](CCCNC(=N)N)C(=O)NCC(N)=O [Compound 27, C18DA-gGlu3-Sar12-AEPipAc-Tyr-Phe-NMeLeu-Nle-Dbu-Pro-Arg-Gly-NH2] | 1.7 | 8800 (≈ 3.28 mM) | –
4 | CCCC[C@H](NC(=O)[C@H](CC(C)C)N(C)C(=O)[C@H](Cc1ccccc1)NC(=O)[C@H](Cc1ccc(O)cc1)NC(=O)CN1CCN(CCNC(=O)CN(C)C(=O)CN(C)C(=O)CN(C)C(=O)CN(C)C(=O)CN(C)C(=O)CN(C)C(=O)CN(C)C(=O)CN(C)C(=O)CN(C)C(=O)CN(C)C(=O)CN(C)C(=O)CN(C)C(=O)CN(C)C(=O)CN(C)C(=O)CN(C)C(=O)CC[C@H](NC(=O)CC[C@H](NC(=O)CC[C@H](NC(=O)CCCCCCCCCCCCCCCCCCC(=O)O)C(=O)O)C(=O)O)C(=O)O)CC1)C(=O)N[C@@H](CCN)C(=O)N1CCC[C@H]1C(=O)N[C@@H](CCCNC(=N)N)C(=O)NCC(N)=O [Compound 42, C20DA-gGlu3-Sar15-AEPipAc-Tyr-Phe-NMeLeu-Nle-Dbu-Pro-Arg-Gly-NH2] (HELM PEPTIDE1{[O=C(O)CCCCCCCCCCCCCCCCCCC(=O)[*:2]].[gGlu].[gGlu].[gGlu].[Sar].[Sar].[Sar].[Sar].[Sar].[Sar].[Sar].[Sar].[Sar].[Sar].[Sar].[Sar].[Sar].[Sar].[Sar].[O=C(CN1CCN(CCN[*:1])CC1)[*:2]].Y.F.[meL].[Nle].[Dab].P.R.G.[am]}$$$$V2.0) | 1.5 | – | solubility at 2 h (physchem; pH 6.9): 5300 µg/mL (≈ 1.81 mM)
5 | CCCC[C@H](NC(=O)[C@H](CC(C)C)N(C)C(=O)[C@H](Cc1ccccc1)NC(=O)[C@H](Cc1ccc(O)cc1)NC(=O)CN1CCN(CCNC(=O)CN(C)C(=O)CN(C)C(=O)CN(C)C(=O)CN(C)C(=O)CN(C)C(=O)CN(C)C(=O)CN(C)C(=O)CN(C)C(=O)CN(C)C(=O)CN(C)C(=O)CN(C)C(=O)CN(C)C(=O)CC[C@H](NC(=O)CC[C@H](NC(=O)CC[C@H](NC(=O)CCCCCCCCCCCCCCCCC(=O)O)C(=O)O)C(=O)O)C(=O)O)CC1)C(=O)N[C@@H](CCCNC(=N)N)C(=O)N1CCC[C@H]1C(=O)N[C@@H](CCCNC(=N)N)C(=O)NCC(N)=O [Compound 25, C18DA-gGlu3-Sar12-AEPipAc-Tyr-Phe-NMeLeu-Nle-Arg-Pro-Arg-Gly-NH2] | 0.2 | 10000 (≈ 3.65 mM) | –
6 | CCCC[C@H](NC(=O)[C@H](CC(C)C)N(C)C(=O)[C@H](Cc1ccccc1)NC(=O)[C@H](Cc1ccc(O)cc1)NC(=O)CN1CCN(CCNC(=O)CN(C)C(=O)CN(C)C(=O)CN(C)C(=O)CN(C)C(=O)CN(C)C(=O)CN(C)C(=O)CN(C)C(=O)CN(C)C(=O)CN(C)C(=O)CN(C)C(=O)CN(C)C(=O)CN(C)C(=O)CC[C@H](NC(=O)CC[C@H](NC(=O)CC[C@H](NC(=O)CCCCCCCCCCCCCCCCC(=O)O)C(=O)O)C(=O)O)C(=O)O)CC1)C(=O)N[C@@H](CCCN)C(=O)N(C)[C@@H](C)C(=O)N[C@@H](CCCNC(=N)N)C(=O)NCC(N)=O [Compound 20, C18DA-gGlu3-Sar12-AEPipAc-Tyr-Phe-NMeLeu-Nle-Orn-NMeAla-Arg-Gly-NH2] | > 1 | 8400 (≈ 3.13 mM) | –
7 | CCCC[C@H](NC(=O)[C@H](CC(C)C)N(C)C(=O)[C@H](Cc1ccccc1)NC(=O)[C@H](Cc1ccc(O)cc1)NC(=O)CN1CCN(CCNC(=O)CN(C)C(=O)CN(C)C(=O)CN(C)C(=O)CN(C)C(=O)CN(C)C(=O)CN(C)C(=O)CN(C)C(=O)CN(C)C(=O)CN(C)C(=O)CN(C)C(=O)CN(C)C(=O)CN(C)C(=O)CN(C)C(=O)CN(C)C(=O)CN(C)C(=O)CC[C@H](NC(=O)CC[C@H](NC(=O)CC[C@H](NC(=O)CCCCCCCCCCCCCCCCCCC(=O)O)C(=O)O)C(=O)O)C(=O)O)CC1)C(=O)N[C@@H](CCN)C(=O)N(C)[C@@H](C)C(=O)N[C@@H](CCCNC(=N)N)C(=O)NCC(N)=O [Compound 43, C20DA-gGlu3-Sar15-AEPipAc-Tyr-Phe-NMeLeu-Nle-Dbu-NMeAla-Arg-Gly-NH2] (HELM PEPTIDE1{[O=C(O)CCCCCCCCCCCCCCCCCCC(=O)[*:2]].[gGlu].[gGlu].[gGlu].[Sar].[Sar].[Sar].[Sar].[Sar].[Sar].[Sar].[Sar].[Sar].[Sar].[Sar].[Sar].[Sar].[Sar].[Sar].[O=C(CN1CCN(CCN[*:1])CC1)[*:2]].Y.F.[meL].[Nle].[Dab].[meA].R.G.[am]}$$$$V2.0) | > 1 | – | solubility at 2 h (physchem; pH 7): 5600 µg/mL (≈ 1.92 mM)
8 | CCCC[C@H](NC(=O)[C@H](CC(C)C)N(C)C(=O)[C@H](Cc1ccccc1)NC(=O)[C@H](Cc1ccc(O)cc1)NC(=O)CN1CCN(CCNC(=O)CN(C)C(=O)CN(C)C(=O)CN(C)C(=O)CN(C)C(=O)CN(C)C(=O)CN(C)C(=O)CN(C)C(=O)CN(C)C(=O)CN(C)C(=O)CC[C@H](NC(=O)CC[C@H](NC(=O)CC[C@H](NC(=O)CCCCCCCCCCCCCCCCC(=O)O)C(=O)O)C(=O)O)C(=O)O)CC1)C(=O)N[C@@H](CCN)C(=O)N1CCC[C@H]1C(=O)N[C@@H](CCCNC(=N)N)C(=O)NCC(N)=O [Compound 24, C18DA-gGlu3-Sar9-AEPipAc-Tyr-Phe-NMeLeu-Nle-Dbu-Pro-Arg-Gly-NH2] (HELM PEPTIDE1{[O=C(O)CCCCCCCCCCCCCCCCC(=O)[*:2]].[gGlu].[gGlu].[gGlu].[Sar].[Sar].[Sar].[Sar].[Sar].[Sar].[Sar].[Sar].[Sar].[O=C(CN1CCN(CCN[*:1])CC1)[*:2]].Y.F.[meL].[Nle].[Dab].P.R.G.[am]}$$$$V2.0) | 1 | – | solubility at 2 h (physchem; pH 7.3): 9500 µg/mL (≈ 3.84 mM)
9 | CCCC[C@H](NC(=O)[C@H](CC(C)C)N(C)C(=O)[C@H](Cc1ccccc1)NC(=O)[C@H](Cc1ccc(O)cc1)NC(=O)CN1CCN(CCNC(=O)CN(C)C(=O)CN(C)C(=O)CN(C)C(=O)CN(C)C(=O)CN(C)C(=O)CN(C)C(=O)CN(C)C(=O)CN(C)C(=O)CN(C)C(=O)CN(C)C(=O)CN(C)C(=O)CN(C)C(=O)CC[C@H](NC(=O)CC[C@H](NC(=O)CC[C@H](NC(=O)CCCCCCCCCCCCCCCCC(=O)O)C(=O)O)C(=O)O)C(=O)O)CC1)C(=O)N[C@@H](CCN)C(=O)N(C)[C@@H](C)C(=O)N[C@@H](CCCNC(=N)N)C(=O)NCC(N)=O [Compound 38, C18DA-gGlu3-Sar12-AEPipAc-Tyr-Phe-NMeLeu-Nle-Dbu-NMeAla-Arg-Gly-NH2] | > 1 | 8800 (≈ 3.29 mM) | –
